The record followed here is US20050032873A1, “3-Amino chroman and 2-amino tetralin derivatives” (Wyeth, priority 2003, published 2005).

Read-outs that look alike come from different tables or passages of the source.

The target of experiment [1] is T1, 5-HT1A receptor (Homo sapiens, UniProt P08908).
T1 sequence (P08908 1-422): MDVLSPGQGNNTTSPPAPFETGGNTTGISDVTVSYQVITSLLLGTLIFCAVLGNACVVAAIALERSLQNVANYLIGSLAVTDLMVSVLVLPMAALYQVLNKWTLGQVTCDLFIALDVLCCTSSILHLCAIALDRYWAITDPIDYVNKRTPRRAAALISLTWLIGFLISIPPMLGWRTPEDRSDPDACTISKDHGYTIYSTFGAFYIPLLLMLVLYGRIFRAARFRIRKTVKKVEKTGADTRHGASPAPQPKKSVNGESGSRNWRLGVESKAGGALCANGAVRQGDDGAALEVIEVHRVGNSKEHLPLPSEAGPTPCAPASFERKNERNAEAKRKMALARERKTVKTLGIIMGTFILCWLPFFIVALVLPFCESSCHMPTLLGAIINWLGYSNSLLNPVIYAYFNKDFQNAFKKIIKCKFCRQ
In words: 5-HT1A receptor affinity: displacement of [3H] 8-OH-DPAT. It counts as binding. Further details: expressed in transfected cells. As to conditions: displacement of [3H] 8-OH-DPAT, CHO cells stably transfected with human 5-HT1A receptors.

Experiment [2] has as its target T2, serotonin transporter (Rattus norvegicus, UniProt P31652).
T2 construct: displace ^3H-paroxetine from male rat cortical membranes; from tissue; host or cells: male rat cortical membranes
The experiment in a line: 5-HT transporter affinity: displacement of 3H-paroxetine from male rat cortical membranes. To be noted: displacement of 3H-paroxetine, male rat cortical membranes. The experiment is classed as binding.

Experiment [3] deals with T3, cloned human 5-HT1A receptors (Homo sapiens, UniProt P08908).
T3 construct: expressed in transfected cells
T3 sequence (P08908 1-422): T1 sequence (P08908 1-422)
The experiment in a line: 35S-GTPγS binding assay, 5-HT1A function. The experiment is classed as biochemical. To be noted: for EC50: agonist potency; for IC50: antagonist potency, reversal of 8-OH-DPAT, read-out: 5-HT1A Function GTPγS IC50.

Experiment [4] deals with T1, 5-HT1A receptor. The experiment in a line: cAMP accumulation assay, 5-HT1A function. The experiment is classed as cell-based. As to conditions: for EC50: cells marked EC50 (agonist); for Emax: read-out: 5-HT1A Function cAMP (Emax); for IC50: cells marked IC50 (antagonist), read-out: 5-HT1A Function cAMP IC50.
Setting [5] is: read-out: 5-HT1A Receptor Affinity Ki.
Setting [6] is: read-out: 5-HT Transporter Affinity Ki.
The mark [7] stands for this setting: maximum stimulatory effect, in brackets after EC50, read-out: 5-HT1A Function GTPγS (Emax).
Where [8] appears, read: maximum inhibitory effect, in brackets after IC50, read-out: 5-HT1A Function GTPγS (Imax).

T2 sequence (P31652 whole entry): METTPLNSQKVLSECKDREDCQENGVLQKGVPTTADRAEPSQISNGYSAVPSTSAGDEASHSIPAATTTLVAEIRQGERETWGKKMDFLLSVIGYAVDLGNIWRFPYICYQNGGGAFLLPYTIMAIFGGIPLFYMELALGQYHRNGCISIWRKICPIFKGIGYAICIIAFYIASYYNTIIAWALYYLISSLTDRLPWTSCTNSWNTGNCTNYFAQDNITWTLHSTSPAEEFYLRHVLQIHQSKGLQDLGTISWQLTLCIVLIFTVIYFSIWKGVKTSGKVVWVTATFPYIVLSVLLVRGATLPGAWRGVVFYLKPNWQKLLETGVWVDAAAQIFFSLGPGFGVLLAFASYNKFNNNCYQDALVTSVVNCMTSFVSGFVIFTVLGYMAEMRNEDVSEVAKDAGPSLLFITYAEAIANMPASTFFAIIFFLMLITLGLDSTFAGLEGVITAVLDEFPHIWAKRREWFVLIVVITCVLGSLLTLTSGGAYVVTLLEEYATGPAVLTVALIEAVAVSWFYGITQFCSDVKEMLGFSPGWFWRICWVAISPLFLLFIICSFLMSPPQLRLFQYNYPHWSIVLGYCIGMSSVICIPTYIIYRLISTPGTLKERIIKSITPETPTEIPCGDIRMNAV

With `COc1cccc2c1CC(N(CCCc1c[nH]c3ccccc13)CC1CC1)CO2` (stereo not drawn) [Compound 43, N-(cyclopropylmethyl)-N-[3-(1H-indol-3-yl)propyl]-N-(5-methoxy-3,4-dihydro-2H-chromen-3-yl)amine], the Ki in experiment [1] (setting [5]) is 1.02 nM; in experiment [2] (setting [6]), 40.9 nM. For the same molecule, the concentration for a half-maximal effect (EC50) in experiment [3] is 0.0513 µM; in experiment [4] it was 0.0108 µM. Moreover, the figures for the Emax in experiment [3] (setting [7]) and in experiment [4] (in brackets after EC50 or IC50) were 100% and 91.5%, respectively.
On to `COc1cccc2c1CC(N(CCCc1c[nH]c3ccccc13)C1CCC1)CO2` (stereo not drawn) [Compound 44, N-cyclobutyl-N-[3-(1H-indol-3-yl)propyl]-N-(5-methoxy-3,4-dihydro-2H-chromen-3-yl)amine], for which the Ki in experiment [1] (setting [5]) came out at 21.4 nM; in experiment [2] (setting [6]) it was 47.2 nM. Further, the IC50 in experiment [3] stood at 0.242 µM. In addition, the Emax came out at 59% in experiment [3] (setting [8]) and 80.5% in experiment [4] (in brackets after EC50 or IC50). Besides, in experiment [4], the response was half-maximal at 0.07 µM (EC50).
Turning to `COc1cccc2c1CC(N(CCCc1c[nH]c3ccc(C#N)cc13)CC1CC1)CO2` (stereo not drawn) [Compound 45, 3-{3-[(cyclopropylmethyl)(5-methoxy-3,4-dihydro-2H-chromen-3-yl)amino]propyl}-1H-indole-5-carbonitrile], the Ki in experiment [1] (setting [5]) stood at 2.16 nM; in experiment [2] (setting [6]), 5.25 nM. Also, the EC50 in experiment [3] amounted to 0.056 µM; in experiment [4] it was 0.0773 µM. Further, the Emax in experiment [3] (setting [7]) is 72%; in experiment [4] (in brackets after EC50 or IC50), 89.5%.
As for `COc1cccc2c1CC(N(CCCc1c[nH]c3ccc(C#N)cc13)C1CCC1)CO2` (stereo not drawn) [Compound 46, 3-{3-[cyclobutyl(5-methoxy-3,4-dihydro-2H-chromen-3-yl)amino]propyl}-1H-indole-5-carbonitrile], the figures for the Ki in experiment [1] (setting [5]) and in experiment [2] (setting [6]) were 14.6 nM and 7.6 nM, respectively. In experiment [3], this molecule gave an EC50 of 0.107 µM. Further, the IC50 in experiment [3] came out at 0.218 µM; in experiment [4], 0.899 µM. Besides, the Emax came to 81% in experiment [3] (setting [8]), 36% in experiment [3] (setting [7]) and 0% in experiment [4] (in brackets after EC50 or IC50).
For `CCCN(CCCc1c[nH]c2ccc(F)cc12)C1CCc2cccc(OC)c2C1` (stereo not drawn) [Compound 47, N-[3-(5-fluoro-1H-indol-3-yl)propyl]-N-(8-methoxy-1,2,3,4-tetrahydronaphthalen-2-yl)-N-propylamine], the Ki in experiment [1] (setting [5]) came out at 4.12 nM; in experiment [2] (setting [6]) it was 2.16 nM. Also, the EC50 in experiment [3] turned out to be 0.0104 µM; in experiment [4], 0.0035 µM. For the same molecule, the Emax in experiment [3] (setting [7]) came out at 100%; in experiment [4] (in brackets after EC50 or IC50), 91.5%.
In the case of `CCCN(CCCc1c[nH]c2ccc(F)cc12)[C@H]1CCc2cccc(OC)c2C1` [Compound 47a, (−)-N-[3-(5-fluoro-1H-indol-3-yl)propyl]-8-methoxy-N-propyl-1,2,3,4-tetrahydronaphthalen-2-amine], the Ki in experiment [1] (setting [5]) worked out at 1.55 nM; in experiment [2] (setting [6]), 0.83 nM. Besides, the values for the EC50 in experiment [3] and in experiment [4] were 0.0056 µM and 0.00761 µM, respectively. The Emax in experiment [3] (setting [7]) is 80.5%; in experiment [4] (in brackets after EC50 or IC50) it was 99%.
Take `CCCN(CCCc1c[nH]c2ccc(F)cc12)[C@@H]1CCc2cccc(OC)c2C1` [Compound 47b, (2R)-N-[3-(5-fluoro-1H-indol-3-yl)propyl]-8-methoxy-N-propyl-1,2,3,4-tetrahydronaphthalen-2-amine]: the Ki worked out at 0.34 nM in experiment [1] (setting [5]) and 1.1 nM in experiment [2] (setting [6]). Moreover, the EC50 in experiment [3] was 0.0194 µM; in experiment [4], 0.00155 µM. In addition, the Emax worked out at 87% in experiment [3] (setting [7]) and 100% in experiment [4] (in brackets after EC50 or IC50).
Consider `CCCN(CCc1c[nH]c2ccc(F)cc12)C1CCc2cccc(OC)c2C1` (stereo not drawn) [Compound 48, N-[2-(5-fluoro-1H-indol-3-yl)ethyl]-N-(8-methoxy-1,2,3,4-tetrahydronaphthalen-2-yl)-N-propylamine], for which the figures for the Ki in experiment [1] (setting [5]) and in experiment [2] (setting [6]) were 5.98 nM and 6.5 nM, respectively. Moreover, the EC50 in experiment [3] was 0.024 µM; in experiment [4] it was 0.035 µM. Further, the Emax in experiment [3] (setting [7]) stood at 93%; in experiment [4] (in brackets after EC50 or IC50), 89%.
As to `CCN(CCc1c[nH]c2ccc(F)cc12)C1CCc2cccc(OC)c2C1` (stereo not drawn) [Compound 49, N-ethyl-N-[2-(5-fluoro-1H-indol-3-yl)ethyl]-N-(8-methoxy-1,2,3,4-tetrahydronaphthalen-2-yl)amine], the Ki was found to be 7.62 nM in experiment [1] (5-HT1A Receptor Affinity Ki (nM)) and 6.5 nM in experiment [2] (5-HT Transporter Affinity Ki (nM)). Further, the results for the EC50 in experiment [3] and in experiment [4] were 0.015 µM and 0.0355 µM, respectively. For the same molecule, the Emax in experiment [3] (setting [7]) was 88%; in experiment [4] (in brackets after EC50 or IC50), 93%.
In the case of `CCCN(CCCc1c[nH]c2ccccc12)C1CCc2cccc(OC)c2C1` (stereo not drawn) [Compound 50, N-[3-(1H-indol-3-yl)propyl]-8-methoxy-N-propyl-1,2,3,4-tetrahydronaphthalen-2-amine], the Ki was found to be 2.13 nM in experiment [1] (setting [5]) and 14 nM in experiment [2] (setting [6]). For the same molecule, the EC50 in experiment [3] was found to be 0.004 µM; in experiment [4] it was 0.00252 µM. Further, the figures for the Emax in experiment [3] (setting [7]) and in experiment [4] (in brackets after EC50 or IC50) were 90% and 98%, respectively.
Regarding `CCCN(CCCc1c[nH]c2ccc(F)cc12)C1CCc2c(F)ccc(OC)c2C1` (stereo not drawn) [Compound 51, N-[3-(5-fluoro-1H-indol-3-yl)propyl]-N-(5-fluoro-8-methoxy-1,2,3,4-tetrahydronaphthalen-2-yl)-N-propylamine], the Ki in experiment [1] (setting [5]) was 11.4 nM; in experiment [2] (setting [6]), 2.42 nM. Besides, the EC50 is 0.0153 µM in experiment [3] and 0.013 µM in experiment [4]. Moreover, the Emax turned out to be 95% in experiment [3] (setting [7]) and 83% in experiment [4] (in brackets after EC50 or IC50).
Turning to `NC(=O)c1ccc(F)c2c1CC(N(CCCc1c[nH]c3cc(F)ccc13)CC1CC1)CO2` (stereo not drawn) [Compound 52a, 3-{(cyclopropylmethyl)[3-(6-fluoro-1H-indol-3-yl)propyl]amino}-8-fluorochromane-5-carboxamide], the inhibition constant (Ki) in experiment [1] (setting [5]) came out at 2.37 nM; in experiment [2] (setting [6]), 163 nM. Further, the IC50 is 0.983 µM in experiment [3] and 0.118 µM in experiment [4]. In addition, the Emax was 90% in experiment [3] (setting [8]) and 0% in experiment [4] (in brackets after EC50 or IC50).
For the molecule `NC(=O)c1ccc(F)c2c1CC(N(CCCc1c[nH]c3cc(F)ccc13)C1CCC1)CO2` (stereo not drawn) [Compound 53, 3-{cyclobutyl[3-(6-fluoro-1H-indol-3-yl)propyl]amino}-8-fluorochromane-5-carboxamide], the Ki was determined as 5.02 nM in experiment [1] (setting [5]) and 237 nM in experiment [2] (setting [6]). Moreover, the figures for the IC50 in experiment [3] and in experiment [4] were 0.512 µM and 0.486 µM, respectively. For the same molecule, the Emax in experiment [3] (setting [8]) came to 100%; in experiment [4] (in brackets after EC50 or IC50), 0%.
Regarding `COC(=O)c1ccc(F)c2c1CC(N(CCCc1c[nH]c3ccc(F)cc13)C1CCC1)CO2` (stereo not drawn) [Compound 55, Methyl 3-{cyclobutyl[3-(5-fluoro-1H-indol-3-yl)propyl]amino}-8-fluorochromane-5-carboxylate], the Ki in experiment [1] (setting [5]) is 73.8 nM; in experiment [2] (setting [6]) it was 161 nM. The 5-HT1A Function GTPγS (Imax) in experiment [3] (maximum inhibitory effect, in brackets after IC50) worked out at 62%. The molecule also came in with a 5-HT1A Function cAMP (Emax) in experiment [4] (in brackets after EC50 or IC50) of 0%.
With `COC(=O)c1ccc(F)c2c1CC(NCCCCc1c[nH]c3ccc(F)cc13)CO2` (stereo not drawn) [Compound 57, Methyl 8-fluoro-3-{[4-(5-fluoro-1H-indol-3-yl)butyl]amino}chromane-5-carboxylate], the results for the Ki in experiment [1] (setting [5]) and in experiment [2] (setting [6]) were 14.1 nM and 4.69 nM, respectively. In addition, the EC50 is 0.247 µM in experiment [3] and 0.0871 µM in experiment [4]. Moreover, the Emax was found to be 89% in experiment [3] (setting [7]) and 91.5% in experiment [4] (in brackets after EC50 or IC50).
